Data from patent US6843979B2, “4-haloethenylphenyl tropane:serotonin transporter imaging agents” (Emory University, priority 1999, dated 2005).
“And” between values parts separate entries of the source, which are not always exact repeats. Equal values may be shown once. Read-outs that look alike come from different tables or passages of the source.

Legend:
human NET = biological target: T1, human NET (Homo sapiens, UniProt P23975); assay: Binding site competition, cells stably transfected with human NET, [3H]nisoxetine; settings: transfected cell lines
T1 construct: expressed in transfected cells

human DAT = biological target: T2, human DAT (Homo sapiens, UniProt Q01959); assay: Binding site competition, cells stably transfected with human DAT, [3H]WIN 35,428; settings: [3H]WIN 35428, transfected cell lines
T2 construct: expressed in transfected cells

human SERT = biological target: T3, human SERT (Homo sapiens, UniProt P31645); assay: Binding site competition, cells stably transfected with human SERT, [3H]citalopram; settings: for Ki / SERT Ki: [3H]citalopram, transfected cell lines; for DAT/SERT selectivity / NET/SERT selectivity: ratio of Ki
T3 construct: expressed in transfected cells

[1] = biological target: dopamine transporter (DAT) (Rattus norvegicus, UniProt P23977); settings: vs [3H]WIN 35428; cited from earlier work
SERT = settings: cited from earlier work; for IC50: vs [3H]paroxetine

T3 sequence (P31645 whole entry): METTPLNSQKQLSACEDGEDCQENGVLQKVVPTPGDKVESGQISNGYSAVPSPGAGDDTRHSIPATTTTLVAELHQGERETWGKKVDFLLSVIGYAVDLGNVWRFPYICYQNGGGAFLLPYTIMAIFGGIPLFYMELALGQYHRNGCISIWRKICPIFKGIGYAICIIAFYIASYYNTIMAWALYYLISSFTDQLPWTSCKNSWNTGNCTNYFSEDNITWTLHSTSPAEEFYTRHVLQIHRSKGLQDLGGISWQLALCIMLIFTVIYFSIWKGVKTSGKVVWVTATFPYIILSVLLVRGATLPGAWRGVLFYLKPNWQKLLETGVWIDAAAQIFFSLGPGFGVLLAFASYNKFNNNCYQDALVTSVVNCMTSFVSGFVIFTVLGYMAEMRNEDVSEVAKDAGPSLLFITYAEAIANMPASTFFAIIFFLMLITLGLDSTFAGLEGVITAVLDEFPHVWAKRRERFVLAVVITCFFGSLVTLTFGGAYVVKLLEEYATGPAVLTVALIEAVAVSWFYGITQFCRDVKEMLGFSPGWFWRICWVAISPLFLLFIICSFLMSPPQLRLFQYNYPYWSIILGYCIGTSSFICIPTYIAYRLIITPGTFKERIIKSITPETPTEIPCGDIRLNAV
T1 sequence (P23975 whole entry): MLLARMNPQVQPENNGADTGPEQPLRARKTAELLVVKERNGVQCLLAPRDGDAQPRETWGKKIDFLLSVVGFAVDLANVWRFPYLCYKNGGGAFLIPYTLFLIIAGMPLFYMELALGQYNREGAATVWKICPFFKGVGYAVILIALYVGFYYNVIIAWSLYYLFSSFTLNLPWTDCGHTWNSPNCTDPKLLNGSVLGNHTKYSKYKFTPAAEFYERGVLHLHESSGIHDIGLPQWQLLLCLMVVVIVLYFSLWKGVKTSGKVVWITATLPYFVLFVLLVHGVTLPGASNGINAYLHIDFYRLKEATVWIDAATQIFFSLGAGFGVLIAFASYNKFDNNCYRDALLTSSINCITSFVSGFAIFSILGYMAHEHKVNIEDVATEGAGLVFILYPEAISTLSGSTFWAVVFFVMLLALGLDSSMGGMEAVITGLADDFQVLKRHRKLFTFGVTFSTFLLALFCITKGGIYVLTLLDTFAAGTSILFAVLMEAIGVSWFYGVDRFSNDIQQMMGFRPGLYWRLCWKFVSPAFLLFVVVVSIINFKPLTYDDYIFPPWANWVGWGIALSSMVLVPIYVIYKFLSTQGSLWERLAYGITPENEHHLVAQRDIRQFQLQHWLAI
T2 sequence (Q01959 whole entry): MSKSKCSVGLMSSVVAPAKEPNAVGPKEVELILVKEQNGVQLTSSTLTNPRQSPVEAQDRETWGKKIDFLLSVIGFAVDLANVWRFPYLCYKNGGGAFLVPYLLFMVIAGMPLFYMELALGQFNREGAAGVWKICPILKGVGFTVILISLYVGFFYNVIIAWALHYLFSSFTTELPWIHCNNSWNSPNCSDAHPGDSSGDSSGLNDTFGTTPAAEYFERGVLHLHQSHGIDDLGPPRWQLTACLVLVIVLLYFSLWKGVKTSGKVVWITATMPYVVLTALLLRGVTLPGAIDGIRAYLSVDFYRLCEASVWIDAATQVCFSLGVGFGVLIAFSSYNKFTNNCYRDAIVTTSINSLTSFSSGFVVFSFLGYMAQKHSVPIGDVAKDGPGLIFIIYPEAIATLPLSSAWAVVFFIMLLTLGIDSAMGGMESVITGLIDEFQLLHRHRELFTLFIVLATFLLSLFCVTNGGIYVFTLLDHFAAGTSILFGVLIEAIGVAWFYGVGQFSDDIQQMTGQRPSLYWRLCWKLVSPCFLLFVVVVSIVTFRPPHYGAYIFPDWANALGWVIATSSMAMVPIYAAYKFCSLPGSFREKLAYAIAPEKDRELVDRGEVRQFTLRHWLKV
Sequence of dopamine transporter (DAT) (P23977 whole entry): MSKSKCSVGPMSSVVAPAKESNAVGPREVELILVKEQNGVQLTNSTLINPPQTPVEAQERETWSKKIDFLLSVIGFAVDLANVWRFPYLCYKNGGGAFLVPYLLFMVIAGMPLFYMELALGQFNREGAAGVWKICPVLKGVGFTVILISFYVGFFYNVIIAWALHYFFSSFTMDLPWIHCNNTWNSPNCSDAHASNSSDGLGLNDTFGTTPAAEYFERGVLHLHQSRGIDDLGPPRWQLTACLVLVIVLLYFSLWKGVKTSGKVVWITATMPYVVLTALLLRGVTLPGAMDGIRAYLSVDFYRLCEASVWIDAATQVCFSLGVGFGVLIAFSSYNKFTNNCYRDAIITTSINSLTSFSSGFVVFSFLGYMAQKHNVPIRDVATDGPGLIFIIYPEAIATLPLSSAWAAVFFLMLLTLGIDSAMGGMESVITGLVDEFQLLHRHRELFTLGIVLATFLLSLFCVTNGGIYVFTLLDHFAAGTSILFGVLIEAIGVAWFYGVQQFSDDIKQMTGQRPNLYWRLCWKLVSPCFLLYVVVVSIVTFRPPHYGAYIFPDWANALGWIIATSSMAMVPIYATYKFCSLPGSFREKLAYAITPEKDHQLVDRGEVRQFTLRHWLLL

Compound	Ki (human NET; read-out: NET Ki)	Ki (human DAT)	Ki (human SERT)	SERT Ki (human SERT)	DAT/SERT selectivity (human SERT)	IC50 [1]	Selectivity for the SERT over the DAT (SERT)	IC50 (SERT)	Ki (human NET; NET Ki)	NET/SERT selectivity (human SERT)
COC(=O)[C@H]1[C@@H](c2ccc(C(C)=CF)cc2)C[C@@H]2CC[C@H]1N2 [IPPNT]	11.8 nM	2.93 nM	0.08 nM	subnanomolar	37					
CC=Cc1ccc(C2CC3CCC(N3)C2C(=O)OC)cc1 (stereo not drawn) [Nor-β-CCPPT, 2β-carbomethoxy-3β-(4′cis-propenylphenyl)notropane]						32 nM	28 times	1.15 nM		
COC(=O)C1C2CCC(CC1c1ccc(CCF)c(Cl)c1)N2 (stereo not drawn) [FEClNT, 2β-carbomethoxy-3β-(4-(2-fluoroethyl)-3-chlorophenyl)nortropane]		27 nM	0.56 nM and 0.12 to 0.56 nM	subnanomolar	48				117 nM	209
C=C(C)c1ccc(C2CC3CCC(N3)C2C(=O)OC)cc1 (stereo not drawn) [Nor-β-CIPPT, 2β-carbomethoxy-3β-(4′-isopropenylphenyl)nortropane]							38 times	0.6 nM		
COC(=O)C1C2CCC(CC1c1ccc(/C=C\CF)cc1)N2 (stereo not drawn) [Ligand Z-3-FPNT, 2β-carbomethoxy-3β-(4′(Z-3-fluoropropenyl)phenyl)-nortropane]		11.6 nM	0.1 nM		116					
COC(=O)C1C2CCC(CC1c1ccc(I)cc1)N2 (stereo not drawn) [Nor-CIT, 2β-carbomethoxy-3β-(4-iodophenyl)nortropane, reference compound]			0.12 nM							
COC(=O)C1C2CCC(CC1c1ccc(CCF)c(I)c1)N2 (stereo not drawn) [FEINT, 2β-carbomethoxy-3β-(4-(2-fluoroethyl)-3-iodophenyl)nortropane]		42.4 nM and 42 nM	0.1 nM and 0.12 to 0.56 nM	subnanomolar	424 and 283				64.9 nM and 65 nM	649
